Experimental data published in ChEMBL document CHEMBL5357016, “Discovery of Novel PDEδ Autophagic Degraders: A Case Study of Autophagy-Tethering Compound (ATTEC)” (ACS Med Chem Lett, 2024).
pIC50: −log10 of the molar value. Calls of active or inactive are those of the source. The rule behind the calls is not given here.

What was measured:
[1] = Drug uptake in lysosome of human HeLa cells assessed as drug fusion by measuring red fluorescence pretreated with compound for 2 hrs followed by probe administration and measured after 1.5 hrs by fluorescence imaging analysis; format: ADME, subcellular; conditions: 3.5 h
[2] = Drug localization in lysosome of human HeLa cells assessed as green fluorescence pretreated with compound for 2 hrs followed by probe administration and measured after 1.5 hrs by fluorescence imaging analysis; format: ADME, subcellular; conditions: 3.5 h
CAPAN-1 = assay: Antiproliferative activity against human CAPAN-1 cells harboring KRAS mutant assessed as reduction in cell proliferation incubated for 72 hrs by CCK-8 assay; conditions: CAPAN-1, 72 h
MIA PaCa-2 [3] = assay: Antiproliferative activity against human MIA PaCa-2 cells harboring KRAS mutant assessed as reduction in cell proliferation incubated for 72 hrs by CCK-8 assay; conditions: MIA PaCa-2, 72 h
MIA PaCa-2 [4] = assay: Induction of apoptosis in human MIA PaCa-2 cells harboring KRAS mutant assessed as early apoptotic cells at 1 uM measured after 24 hrs by Annexin V-FITC/PI staining based flow cytometric analysis (Rvb= 4.62%); format: functional
MIA PaCa-2 [5] = assay: Induction of apoptosis in human MIA PaCa-2 cells harboring KRAS mutant assessed as necrotic cells at 10 uM measured after 24 hrs by Annexin V-FITC/PI staining based flow cytometric analysis (Rvb= 0.3%); format: functional
MIA PaCa-2 [6] = assay: Effect on PDEdelta mRNA expression in human MIA PaCa-2 cells measured after 24 hrs by RT-qPCR analysis; format: functional, cell-based
MIA PaCa-2 [7] = assay: Induction of apoptosis in human MIA PaCa-2 cells harboring KRAS mutant assessed as late apoptotic cells at 10 uM measured after 24 hrs by Annexin V-FITC/PI staining based flow cytometric analysis (Rvb= 10.56%); format: functional
MIA PaCa-2 [8] = assay: Induction of apoptosis in human MIA PaCa-2 cells harboring KRAS mutant assessed as late apoptotic cells at 1 uM measured after 24 hrs by Annexin V-FITC/PI staining based flow cytometric analysis (Rvb= 10.56%); format: functional
MIA PaCa-2 [9] = assay: Induction of apoptosis in human MIA PaCa-2 cells harboring KRAS mutant assessed as early apoptotic cells at 10 uM measured after 24 hrs by Annexin V-FITC/PI staining based flow cytometric analysis (Rvb= 4.62%); format: functional
MIA PaCa-2 [10] = assay: Induction of apoptosis in human MIA PaCa-2 cells harboring KRAS mutant assessed as necrotic cells at 1 uM measured after 24 hrs by Annexin V-FITC/PI staining based flow cytometric analysis (Rvb= 0.3%); format: functional

Structure (SMILES)	Drug uptake [1]	Drug uptake [2]	pIC50 (CAPAN-1)	pIC50 (MIA PaCa-2 [3])	Activity (MIA PaCa-2 [4]) [%]	Activity (MIA PaCa-2 [5]) [%]	Activity (MIA PaCa-2 [6])	Activity (MIA PaCa-2 [7]) [%]	Activity (MIA PaCa-2 [8]) [%]	Activity (MIA PaCa-2 [9]) [%]	Activity (MIA PaCa-2 [10]) [%]
O=C(COc1c(Br)cc(/C=C2\C(=O)Nc3ccc(I)cc32)cc1Br)NCCCOCCOCCOCCCNC(=S)Nc1ccc2c(c1)C(=O)OC21c2ccc(O)cc2Oc2cc(O)ccc21	Active	Active	–	–	–	–	–	–	–	–	–
Cc1ccc(-n2nc3c(=O)n(CCCC(=O)NCCOCCOCCNC(=O)COc4c(Br)cc(/C=C5\C(=O)Nc6ccc(I)cc65)cc4Br)nc(C)c3c2C)cc1	–	–	5.46	4.60	–	–	–	–	–	–	–
Cc1ccc(-n2nc3c(=O)n(CCCC(=O)NCCCCCCNC(=O)COc4c(Br)cc(/C=C5\C(=O)Nc6ccc(I)cc65)cc4Br)nc(C)c3c2C)cc1	–	–	6.10	5.85	3.8	11.64	inactive	23.49	18.43	9.76	0.43
